Assay results reported in patent US20260092057A1, “BCL-XL/BCL-2 DEGRADERS AND USES THEREOF” (Kymera Therapeutics, Inc., priority 2022, published 2026).

Tests used:
MOLT-4 cells = assay: CTG (CellTiter-Glo) cell viability assay, MOLT-4; type: cell-based; conditions: Homo sapiens, MOLT-4, 72 h, MOLT-4, 3 day; read-out: CTG Cell Viability Assay - MOLT-4 3 day: Average external-IC50
Procedure: (§1) Compound-mediated viability effect on MOLT-4 and Caki-2 was quantitatively determined using the CellTiter-Glo® Luminescent Cell Viability Assay kit from Promega (Catalog number G7570) following manufacturer's recommended procedures. Briefly, MOLT-4 and Caki-2 cells were seeded into 384 well plates (Grenier Bio-One, Catalog number 781080) with a density of 10,000 cells per well. Compounds were then added to the assay plate with final top concentration of 10 µM and 1:3 dilution series with total of 9 doses. The final DMSO concentration is normalized to 0.2%. The assay plates were incubated at 37° C. for 3 days under 5% CO2. Then the assay plate was equilibrated at room temperature for 10 minutes. To determine cell viability, 30 uL CellTiter Glo reagent was added to each well and the assay plate was centrifuged at 1000 rpm for 30 second, incubated at room temperature for 10 min, and analyzed by detecting the luminescence using a multimode plate reader (EnVision 2105, PerkinElmer). The data was then analyzed by software Prism 7.0 from GraphPad and the dose response curves are fit using a three-parameter logistic equation to calculate IC50.
(§2) The letter codes for MOLT-4 IC50 include: A (<0.1 μM); B (0.1-1.0 μM); C (>1.0-3.0 μM); and D (>3.0 μM). The letter codes for Caki-2 IC50 include: A (<5 μM); B (5-10 μM); C (>10-30.0 μM); and D (>30.0 μM).

Caki-2 cells = assay: CTG (CellTiter-Glo) cell viability assay, Caki-2; type: cell-based; conditions: Homo sapiens, CAKI-2, 72 h, Caki-2, 3-day; read-out: CTG Chempartner/PHA- Caki-2 3-day: Average external-IC50
Procedure: as §1, §2

For `Cc1ncsc1-c1ccc([C@H](C)NC(=O)[C@@H]2C[C@@H](O)CN2C(=O)[C@@H](NC(=O)CCCCCC(=O)N(C)CC[C@H](CSc2ccccc2)Nc2ccc(S(=O)(=O)NC(=O)c3ccc(N4CCC([C@@H](O)c5ccccc5-c5ccc(Cl)cc5)CC4)cc3)cc2S(=O)(=O)C(F)(F)F)C(C)(C)C)cc1` [I-72], the IC50 (MOLT-4 cells) was 1000 to 3000 nM and the IC50 (Caki-2 cells) was 10000 to 30000 nM.

With `Cc1ncsc1-c1ccc([C@H](C)NC(=O)[C@@H]2C[C@@H](O)CN2C(=O)[C@@H](NC(=O)CCCCCC(=O)N[C@H]2CCN(CCCNc3ccc(S(=O)(=O)NC(=O)c4ccc(N5CCN(CC6=C(c7ccc(Cl)cc7)CC(C)(C)CC6)CC5)cc4Oc4cnc5[nH]ccc5c4)cc3S(=O)(=O)C(F)(F)F)C2)C(C)(C)C)cc1` [I-96] the IC50 (MOLT-4 cells) was 100 to 1000 nM and the IC50 (Caki-2 cells) was > 30000 nM.

`Cc1ncsc1-c1ccc([C@H](C)NC(=O)[C@@H]2C[C@@H](O)CN2C(=O)[C@@H](NC(=O)C2CCN(c3ccc(NC(=O)c4ccc(-c5ccc(Cl)cc5)c([C@@H](O)C5CCN(c6ccc(C(=O)NS(=O)(=O)c7ccc(N[C@H](CCN(C)CCO)CSc8ccccc8)c(S(=O)(=O)C(F)(F)F)c7)cc6)CC5)c4)cc3)CC2)C(C)(C)C)cc1` [I-123] was tested, and the IC50 (MOLT-4 cells) was > 3000 nM and the IC50 (Caki-2 cells) was > 30000 nM.

`Cc1ncsc1-c1ccc([C@H](C)NC(=O)[C@@H]2C[C@@H](O)CN2C(=O)[C@@H](NC(=O)CCCCCC(=O)N(C)CCCNc2ccc(S(=O)(=O)NC(=O)c3ccc(N4CCC([C@H](O)c5ccccc5-c5ccc(Cl)cc5)CC4)cc3Oc3cnc4[nH]ccc4c3)cc2S(=O)(=O)C(F)(F)F)C(C)(C)C)cc1` (single isomer, unassigned) [I-58] was tested, and the IC50 (MOLT-4 cells) was 1000 to 3000 nM and the IC50 (Caki-2 cells) was > 30000 nM.

With `Cc1ncsc1-c1ccc([C@H](C)NC(=O)[C@@H]2C[C@@H](O)CN2C(=O)[C@@H](NC(=O)CCCCCC(=O)N(C)CCCNc2ccc(S(=O)(=O)NC(=O)c3ccc(N4CCN(Cc5ccccc5-c5ccc(Cl)cc5)CC4)cc3Oc3cnc4[nH]ccc4c3)cc2S(=O)(=O)C(F)(F)F)C(C)(C)C)cc1` [I-61] the IC50 (MOLT-4 cells) was > 3000 nM and the IC50 (Caki-2 cells) was > 30000 nM.

`Cc1ncsc1-c1ccc([C@H](C)NC(=O)[C@@H]2C[C@@H](O)CN2C(=O)[C@@H](NC(=O)CCCCCC(=O)NCCCNc2ccc(S(=O)(=O)NC(=O)c3ccc(N4CCC([C@H](O)c5ccccc5-c5ccc(Cl)cc5)CC4)cc3Oc3cnc4[nH]ccc4c3)cc2S(=O)(=O)C(F)(F)F)C(C)(C)C)cc1` [I-56] was tested, and the IC50 (MOLT-4 cells) was > 3000 nM and the IC50 (Caki-2 cells) was > 30000 nM.

With `Cc1ncsc1-c1ccc([C@H](C)NC(=O)[C@@H]2C[C@@H](N)CN2C(=O)[C@@H](NC(=O)C2CCN(CCCNc3ccc(S(=O)(=O)NC(=O)c4ccc(N5CCC([C@@H](O)c6ccccc6-c6ccc(Cl)cc6)CC5)cc4Oc4cnc5[nH]ccc5c4)cc3S(=O)(=O)C(F)(F)F)CC2)C(C)(C)C)cc1` (single isomer, unassigned) [I-91] the IC50 (MOLT-4 cells) was > 3000 nM and the IC50 (Caki-2 cells) was > 30000 nM.

`Cc1ncsc1-c1ccc([C@H](C)NC(=O)[C@@H]2C[C@@H](O)CN2C(=O)[C@@H](NC(=O)CCC(=O)N2CCN(CC[C@H](CSc3ccccc3)Nc3ccc(S(=O)(=O)NC(=O)c4ccc(N5CCC([C@@H](O)c6ccccc6-c6ccc(Cl)cc6)CC5)cc4)cc3S(=O)(=O)C(F)(F)F)CC2)C(C)(C)C)cc1` [I-119] was tested, and the IC50 (MOLT-4 cells) was > 3000 nM and the IC50 (Caki-2 cells) was > 30000 nM.

For `Cc1ncsc1-c1ccc([C@H](C)NC(=O)[C@@H]2C[C@@H](O)CN2C(=O)[C@@H](NC(=O)C#CC2CCN(CCCNc3ccc(S(=O)(=O)NC(=O)c4ccc(N5CCC([C@@H](O)c6ccccc6-c6ccc(Cl)cc6)CC5)cc4Oc4cnc5[nH]ccc5c4)cc3S(=O)(=O)C(F)(F)F)CC2)C(C)(C)C)cc1` [I-117], the IC50 (MOLT-4 cells) was > 3000 nM and the IC50 (Caki-2 cells) was > 30000 nM.

With `Cc1ncsc1-c1ccc([C@H](C)NC(=O)[C@@H]2C[C@@H](O)CN2C(=O)[C@@H](NC(=O)CCCCCC(=O)N(C)CC[C@H](CSc2ccccc2)Nc2ccc(S(=O)(=O)NC(=O)c3ccc(N4CCC(C(O)c5ccccc5-c5ccc(Cl)cc5)CC4)cc3)cc2S(=O)(=O)C(F)(F)F)C(C)(C)C)cc1` (some centres unmarked) [I-71] the IC50 (MOLT-4 cells) was 1000 to 3000 nM and the IC50 (Caki-2 cells) was 10000 to 30000 nM.
